Assay results published in patent US10053455B2, “Diazaspiroalkaneone-substituted oxazole derivatives as spleen tyrosine kinase inhibitors” (AB SCIENCE, priority 2014, dated 2018).

Assays:
[1] = system: Salmonella typhimurium strain TA98; assay: AMES mutagenic assay, TA98 strain; conditions: TA98, presence of S-9, 1 μg per well (positive control)
Procedure: (§1) Mutagenic activity of test compounds and their metabolites (produced by rat liver S9 fraction) was evaluated in the Salmonella typhimurium strains TA100 and TA98 according to the Ames assay (Toxicology in vitro, (2001), 15: 105-114). […] The results are expressed as a mutagenicity ratio in comparison to solvent controls.
(§2) The results are expressed as a ratio of the number of colonies over the number of colonies in the negative control (DMSO).

[2] = system: Salmonella typhimurium strain TA100; conditions: Salmonella typhimurium
Procedure: as §1, §2

[3] = system: murine model of arthritis; assay: K/BxN serum mouse model of rheumatoid arthritis: ankle thickening and arthritis score; type: in vivo, C57Bl/6 mice; conditions: 50 mg/kg b.i.d.
Procedure: K/B×N serum pools were prepared from arthritic mice at 8 weeks of age. The mice were pre-treated with SYK inhibitors by two per os administration for two days before induction of arthritis. Arthritis was induced in the C57Bl/6 mice (8 weeks of age) by intraperitoneal injection (7.5 μl serum per g weight) at days 0 and 2.
The treatment with SYK inhibitors was continued for 13 days. The control mice were injected with solvent before the induction of arthritis and during the course of the disease. The compounds were dissolved in a solution containing 10% of Tween 80 and 10% 1-2 propandiol. It was prepared before administration.
Ankle thickening measure, being defined as the difference in ankle thickness from the day 0, was measured using a precision calliper. Arthritis/clinical score was defined by sum of scores of each lim (0 no disease; 1 mild swelling of paw or of just of few digits; 2 clear joint inflammation; 3 severe joint inflammation) maximum score=12.
K/B×N was a murine model of spontaneous rheumatoid arthritis that mimics many of the clinical and histological features of human disease with synovitis predominantly in the distal small joints. Arthritis was induced by intraperitoneal injection of arthritis serum of K/B×N mice at days 0 and 2 as described in protocol assays above. Compound 001 was tested at 15 and 50 mg/kg/day b.i.d. and compared with Masitinib at 50 mg/kg/day b.i.d., an AB Science drug candidate for treating rheumatoid arthritis (Arthritis Res Ther., (2009), 11(3):R95). Ankle thickening and arthritis score were used to monitor the in vivo activity of the compounds.

murine model of asthma = assay: Mouse model of asthma: eosinophils recruitment in bronchio-alveolar lavage; type: in vivo, Balb/c male mice
Procedure: Balb/c male mice, 8 weeks old, were purchased from Janvier (Le Genest-Saint-Isle; FRANCE) and bred in the animal facility for 4 weeks. Drugs were dissolved in drinking solvent (80% water; 10% Tween 80 and 10% isopropanediol). It was aliquoted and stored at −20° C. Each mouse received drugs twice a day. The weight of animals was calculated before and after treatment.
Mice, 9 weeks of age, were sensitized with 50 μg of ovalbumin (Sigma-Aldrich, Germany) adsorbed to 2 mg Al(OH)3 (Prolabo, France) and diluted in physiological saline (0.9% NaCl). Ovalbumin was injected intraperitoneally on days 1 and 7. Sensitization was followed by intranasal challenges with 10 μg of ovalbumin diluted in 0.9% NaCl, each day from day 18 to day 21. On days 17 to 21, animals treated with drugs received 100 μl of a solution at 15 mg/ml, at 7.5 mg/ml or at 3.75 mg/ml administered per os twice a day during 5 days. These treatments corresponded to concentration of 60 mg/mouse kg, 30 mg/mouse kg and 15 mg/mouse kg respectively.
Bronchio-alveolar lavage (BAL) was performed after the animals were disconnected from the FlexiVent®. The airways were lavaged with 5 ml (10 times 0.5 ml) ice cold 0.9% NaCl 2.6 mM EDTA. BAL samples were centrifuged at 1200 rpm for 5 minutes at 4° C. Pellet cells were collected and erythrocytes lysed by adding 1.5 ml deionized water for 30 seconds. After neutralization with 0.5 ml of 0.6M KCl, cells were centrifuged at 1200 rpm for 5 minutes at 4° C. BAL samples were used to count the total cell number and to perform cytospins (shandon, Pontoise). Cell types were identified by morphological criteria after Hemacolor (Merck) staining.
Mice were sensitized and challenged with ovalbumin as described in protocol assays above. The mice were distributed in groups of 5-6 animals that were treated twice daily with 7.5 to 60 mg/Kg of anti-SYK/KIT drugs (PO).

c-Ret mut = assay: HTRF kinase assay, c-Ret mut; type: biochemical; conditions: enzymatic determination
Procedure: Most of the kinases tested in this study were cloned, expressed and purified in the facilities of the inventors. They were expressed either as N-terminus hexahistidine-, hexahistidine-asparagine- or GST-tagged enzymes in a baculovirus or in a Colibacille expression system. Remaining enzymes (JAKs) were purchased from Millipore or Proqinase. For each enzyme, steady state kinetic parameters were determined and validated with known inhibitors.
The analysis of the effect of compounds on kinase activity was assessed with the HTRF® KinEASE assay (Cisbio International), an immuno-assay based on the quantification of the level of phosphorylation of a biotinylated peptide substrate using anti-phospho-specific antibody labeled with Europium (Eu^3+) cryptate. This assay comprises two steps: —an enzymatic step, during which the peptide substrate, the kinase, ATP, Mg^2+ and/or Mn^2+ are incubated with varying concentration of drug (from 0 to 10 μM); —a detection step, at the end of the reaction (stopped by addition of EDTA which chelates Mg^2+), the antibody anti-phospho peptide-Eu^3+ (emission 620 nm) and streptavidin XL-665 (emission 665 nm) are added to the reaction mix. […] Results are expressed in delta fluorescence (DF) unit defined as follow DF %=[(ratio−ratio blank)/(ratio blank)]*100, where ratio=(665 nm/620 nm)*10^4. […]

[4] = system: Murine bone marrow mast cells (BMMCs); assay: IgE-mediated mast cell degranulation assay (β-hexosaminidase release); type: cell-based, C57BL/6J mice
Procedure: In vitro mast cell degranulation assay monitored by released of β-hexosaminidase. Murine bone marrow mast cells (BMMCs) are obtained by flushing bone marrow cells from the femurs of C57BL/6J mice, then cultured for 3-4 weeks in RPMI containing mouse recombinant IL-3 (30 ng/ml). RBL-2H3 is a rat basophile cell line maintained in monolayer culture in EMEM supplemented with 20% FCS, 1 mM Glutamine and 1× antibiotics. Cells were sensitized overnight with 0.2 μg/ml anti-DNP-IgE (Sigma-Aldrich D8406). […] After incubation 90 min at 37° C., the reaction was quenched by addition of 100 μl of sodium carbonate buffer (0.1M Na2CO3/NaHCO3 pH 10.0). β-hexosaminidase activity was quantified by reading plate absorbance at 405 nm with reference at 620 nm using a PolarSTAR reader plate (BMG labech).
The activity of anti-SYK compounds was tested in an IgE-mediated mast cell degranulation assay. SYK has been identified to be critical for the initiation of mast cell mediator release following the aggregation of FcεRI.

[5] = system: primary human adult cardiomyocytes; assay: WST-1 cell survival/proliferation assay on human cardiomyocytes; type: cell-based; conditions: Human Cardiac Myocyte
Procedure: WST-1 cell survival/proliferation assay (Roche Diagnostic ref No 1644807) was performed on both primary human adult cardiomyocytes and rat neonatal cardiac myocytes.
Human cardiomyocytes were isolated from normal human ventricle tissue of the adult heart and were able to proliferate for a number of passage. Neonatal ventricular Clonetics® Rat Cardiac Myocytes (P1-3) retained their contractile property and were electrophysiologically active in culture. 1.10^4 primary rat cells or 2-2.5 10^4 adult human cells were plated per well of a 96 wells plates. The cells were allowed to adhere to the plates for 5 days before drug treatment. Treatment was initiated by addition of a 2× drug solution of ½ serial dilutions ranging from 0 to 10 μM. Cells were grown for 48 h at 37° C. and then incubated with 10 μl/well of WST-1 reagent for 4 h at 37° C. The amount of formazan dye formed was quantified by its absorbance at 450 nm using a scanning multiwell spectrophotometer (MultiSkan MS, Thermo-LabSystems, France). A blank well without cells was used as a background control for the spectrophotometer and all assays were performed in triplicate.

[6] = Experiment #1, 2 × 30 mg/kg/day PO

| SMILES | Ratio treated/solvent [1] | Ratio treated/solvent [2] | Ankle Thickening Score [3] | Arthritis Score [3] | Percentage of Eosinophils recruitment in Bronchio-alveolar lavage (BAL) (murine model of asthma; Experiment #1, 2 × 7.5 mg/kg/day PO) | Percentage of Eosinophils recruitment in Bronchio-alveolar lavage (BAL) (murine model of asthma; Experiment #1, 2 × 25 mg/kg/day PO) | Percentage of Eosinophils recruitment in Bronchio-alveolar lavage (BAL) (murine model of asthma; [6]) | Percentage of Eosinophils recruitment in Bronchio-alveolar lavage (BAL) (murine model of asthma; Experiment #2, 2 × 30 mg/kg/day PO) | IC50 (c-Ret mut) | β-hexosaminidase activity (% control untreated cells) ([4]; 0.01 μM) | β-hexosaminidase activity (% control untreated cells) ([4]; 0.1 μM) | β-hexosaminidase activity (% control untreated cells) ([4]; 1 μM) | % cell viable at 1 μM, Hu-CM ([5]; 1 μM) | IC50 ([5]; 48 h, read-out: Drug-induced cytotoxicity IC50, Hu-CM) |
| --- | --- | --- | --- | --- | --- | --- | --- | --- | --- | --- | --- | --- | --- | --- |
| Nc1ccc2cc3ccccc3cc2c1 [Compound 2-AM, 2-Anthramine, reference compound] | 138.1 | 18.1 |  |  |  |  |  |  |  |  |  |  |  |  |
| Cc1ccc(NC(=O)c2ccc(CN3CCN(C)CC3)cc2)cc1Nc1nc(-c2cccnc2)cs1 [Masitinib] |  |  | −27% P < 0.05 | −15% | −15% | −35% | −56% | −47% |  |  |  |  |  |  |
| COc1cc(Nc2ncc(F)c(Nc3ccc4c(n3)NC(=O)C(C)(C)O4)n2)cc(OC)c1OC [Compound R406] |  |  |  |  |  |  | −31% |  | 0.5 µM | 78 ± 11% | 16 ± 6% | 3 ± 3% | −18% | 2.6 µM |
